Patent US20060088815A1, “Method for evaluation of endocrine disruptive action” (THE UNIVERSITY OF TOKYO, priority 2004, published 2006)

Test system: hippocampal tissue slice
Assay: Excitatory postsynaptic potential of hippocampal tissue slices on a multiple-electrode probe; NMDA-induced long-term depression
Type: cell-based, rat
Conditions: substance 1 nM perfused for 30 minutes before NMDA (30 μM, 3 minutes)
Description: Now, an example of a specific embodiment for the above-mentioned evaluating method 1 will be illustrated. First, the preparation of a cell group and a setting method of experimental conditions are explained below. With regard to the cell group, a tissue slice which was a transversely cut in a hippocampal region along a long-axis which was cut out from a brain tissue of an adult rat using a vibratome (DSK ZERO 1; manufactured by Dosaka EM K.K.) was used. Thickness of the hippocampal tissue slice was made 300 μm.
For the measurement of an electrophysiological response of this hippocampal tissue slice, a multiple-electrode measuring apparatus MED 64 System (Alpha Med) was used. With regard to an electrode arranged in the hippocampal tissue slice, a multiple-electrode probe MED-P530A (Alpha Med) attached to this multiple-electrode measuring apparatus was used. On a substrate of this multiple-electrode probe, plural electrodes are previously arranged regularly with a predetermined interval (300 μm).
One sheet of the hippocampal tissue slice cut out by a vibratome was allowed to stand in a chamber placed on a substrate of one multiple-electrode probe and, at the same time, an artificial cerebrospinal fluid sufficiently saturated with a mixed gas of oxygen and carbon dioxide (95% oxygen gas and 5% carbon dioxide gas) was filled in the chamber whereby the hippocampal tissue slice was soaked in the artificial cerebrospinal fluid followed by being allowed to stand at room temperature for 1 hour or longer. With regard to the artificial cerebrospinal fluid, an aqueous solution containing 124 mM of NaCl, 1.25 mM of NaH2PO4.2H2O, 5 mM of KCl, 2 mM of MgSO4.7H2O, 2 mM of CaCl2, 22 mM of NaHCO3 and 10 mM of […] was used.
In this artificial cerebrospinal fluid, the hippocampal tissue slice was placed on the multiple-electrode probe so that the cells included in each of three regions comprising one dentate gyrus and two cornu ammonis regions near the surface of the hippocampal tissue slice were brought into contact with plural electrodes on the multiple-electrode probe. Thus, a stimulating electrode which applies electrical stimulation to presynaptic fiber projecting to the nerve cell group and a recording electrode which records excitatory postsynaptic potential induced by the electrical stimulation in the nerve cell group as accumulated potential are arranged for each of pyramidal cells of cornu ammonis CA1 field, pyramidal cells of cornu ammonis CA3 field and granular cells of dentate gyrus.
Electrical stimulation to a hippocampal tissue slice by a stimulating electrode was carried out by repeated application of electrical stimulation at intervals of 15 seconds in the order of a stimulating electrode arranged in a cornu ammonis CA1 field, a stimulating electrode arranged in a cornu ammonis CA3 field, a stimulating electrode arranges in a dentate gyrus and, again, a stimulating electrode arranged in a cornu ammonis CA1 field. The excitatory postsynaptic potential induced by the electrical stimulation was recorded for about 30 minutes and, after confirming that the accumulated potential was stabilized, strength of electrical stimulation applied from the stimulating electrode was set in each of the following steps. […] When the strength of the measured accumulated potential was saturated (or became constant), the strength of the saturated accumulated potential was defined as maximum (100%) and strength of electrical stimulation to be applied to the hippocampal tissue slice from the stimulating electrode was set so as to make the value 50% of the above maximum value.
In this Example, DES was used as an object substance, estradiol, which is one example of estrogen, was used as an agonist to hormone receptor and NMDA was used as a stimulant. […]

Row | SMILES | excitatory postsynaptic potential 50 minutes after administration of NMDA, relative to that before administration of NMDA (cornu ammonis CA1 field) | excitatory postsynaptic potential 50 minutes after administration of NMDA, relative to that before administration of NMDA (cornu ammonis CA3 field) | excitatory postsynaptic potential 50 minutes after administration of NMDA, relative to that before administration of NMDA (dentate gyrus)
1 | CC/C(=C(/CC)c1ccc(O)cc1)c1ccc(O)cc1 [DES, diethylstilbestrol] | about 40% | about 75% | about 68%
2 | C[C@]12CC[C@@H]3c4ccc(O)cc4CC[C@H]3[C@@H]1CC[C@@H]2O [estradiol] | about 40% | about 55% | about 80%
